Laboratory results as given in US10076540B1, “Medication enhancement using hydrogen” (Perricone Hydrogen Water Company, LLC, priority 2017, dated 2018).

Assay: Time until the effects of THC are felt after ingestion of a hydrogen-containing composition (uptake rate)
Assay type: in vivo
Conditions: human subject; drunk composition of liquid such as water, dissolved hydrogen and THC
Text: In some embodiments, the composition comprising hydrogen and an active pharmaceutical agent may have an uptake rate that is at least 2, at least 3, at least 5, at least 10, at least 20, at least 30, or at least 50 times the uptake rate of the active pharmaceutical agent alone by a subject. In certain embodiments, composition comprising hydrogen and an active pharmaceutical agent may have an uptake rate that is less than or equal to 100, less than or equal to 50, less than or equal to 30, less than or equal to 20, less than or equal to 10, less than or equal to 5, or less than or equal to 3 times the uptake rate of the active pharmaceutical agent alone by the subject. Combinations of the above-referenced ranges are also possible (e.g., at least 2 or less than or equal to 100 times). Other ranges are also possible. The uptake rate of a composition (or active pharmaceutical agent) may be determined by administering the composition (or active pharmaceutical agent) to a subject and determining the amount of time required to observe a pharmacological effect (e.g., a psychotropic effect, a reduction in disease and/or clinical symptom) of the active pharmaceutical agent on the subject.
A composition such as described herein is provided to a subject, such as a human subject. […]

CCCCCc1cc(O)c2c(c1)OC(C)(C)[C@@H]1CCC(C)=C[C@@H]21 [THC, tetrahydrocannabinol]
time after ingestion until the effects of the THC are felt by the subject: less than 5 minutes
